Results taken from US20040116527A1, “Agents against stress-induced diseases” (AJINOMOTO CO., INC., priority 2001, published 2004).

What was measured:
[1] = system: mojyako (young yellow tail); test: Feeding test under stress from feeding at high density in a water tank (Example 7); format: in vivo; conditions: for Total feed intake: 24 feeding days; for Daily feeding ratio (%) / Daily increment (%) / Feed efficiency (%) / Survival rate (%): 28 day test; for Survival rate (%): 40 fish per 800-L tank; for feed intake compared with the remaining experimental lots (involving higher body weight increment): over the 3 week to 4 week
Experimental: Test feeds were prepared by adding lysine hydrochloride salt at the ratio shown in Table 3 below to a commercially available mashed feed for mojyako. The lysine content in the dry feed is thereby at 4.8%, which is far above the dietetic requirement (1.78%). For comparison, further, a feed was prepared by adding arginine hydrochloride salt at the same level instead of lysine hydrochloride salt, for use at the test.
As test fish, each group of 40 mojyako fishes of mean fish body weight of about 35 g were placed in one 800-L water tank, to which the feeds were fed two times daily at 8:00 in the morning and 16:00 in the afternoon to satiation, for a total of 4 weeks. During the term, their body weights were measured weekly. Herein, feeding was not done at 16:00 in the afternoon on the day before the day for body weight measurement.

[2] = system: Wistar rats; test: Elevated T-maze test after water-immersion stress, oral aqueous solutions (Example 6); format: in vivo, rat
Experimental: Seven-week Wistar rats (male, Nippon Charles-River) were used. For 7 days, the normal diet (CRF-1; Oriental Yeast) was fed ad libitum to the rats, for preliminary feeding. For the stress experiment, the rats were divided into the following three groups for feeding for another 3 days under starvation conditions: 1) a group (N=14) fed with an aqueous glutamine solution (120 mg/mL); 2) a group (N=14) given with an aqueous lysine solution (120 mg/mL); and 3) a group (N=14) given with an aqueous mixture solution of lysine glutamate salt (120 mg/mL) and arginine (120 mg/mL). The aqueous solutions were given to the individual groups in such a manner that dosing of 5 mL of each solution was enforced with an oral probe, once daily at 9:00 in the morning. During the term, water was fed ad libitum. On day 4, the rats were placed in a stress gage (Natsume Seisakusho; KN-468) to immerse the rats in water (temperature of 22 to 25° C.) so as to soak their breast for 4 hours for stress loading. Thereafter, elevated T-maze (see Example 1) test was done, for counting the time duration for searching action.

[3] = system: Wistar rats; test: Model with stress-induced appetite loss, foot shock stress (Example 4); format: in vivo, rat; conditions: lysine-added diet (27 g/kg) vs control diet (13.4 g/kg), fed from 4 days before foot shock stress
Experimental: Wistar rats (male; age 13 weeks; about 400 g or so; N=16) were used at this experiment. Four days before the start of the experiment and throughout the stress experiment, the rats were fed with normal diet (control diet; lysine at 13.4 g/kg) and the lysine-added diet (27 g/kg). Under conditions of water ad libitum, feeding was done from 9:00 to 11:00. The rats were subjected to foot shock stress (1 mA/3 minutes; once per one hour at 19:00 to 7:00 on the next day) on day 4 of feeding; foot shock stress (1 mA/3 minutes, once per 2 hours at 19:00 to 7:00 on the next day) on day 5; and foot shock stress (1 mA/3 minutes, once at 7:00) on day 6. The changes in the total feed intake each day and the change of body weight over days were measured.

[4] = system: Broiler (species: Arbor Acres); test: Broiler feeding at normal and high density under very hot conditions (Example 8); format: in vivo; conditions: loading of lysine alone, ratio of arginine/lysine in the feed lowered
Excerpt: Broiler (species: Arbor Acres) was fed under very hot conditions.
The feeding density was 8 chickens/1 m^2 (normal density) and 12 chickens/1 m^2 (high density) in two lots; the feeds were the following three groups: Feed 1=normal feed; Feed 2=normal feed+lysine (the lysine content 2-fold that in Feed 1); or Feed 3=normal feed+lysine+arginine (the lysine content and the arginine content were individually 2-fold those in Feed 1). A total of 6 experimental examples were set as combinations of the feeding densities and the feeds. The test was started on age 21 days (the mean body weight then was 722 g). The feeding results (body weight increment, feed requirement) on age 48 days were compared thereto. On the age 48 days, the chickens were sacrificed to death, for the evaluation of their meat quality (fat ratio in abdominal cavity). The feed requirement was expressed by the feed amount required for the increment of 1 g/body weight, as calculated by dividing the total feed intake by the body weight increment.

[5] = system: Wistar rats; test: Stress-induced gastric ulcer experiment, oral aqueous solutions (Example 5); format: in vivo, rat; conditions: 5 mL orally once daily for 3 days, water immersion 5 hours on day 4; compared with control group fed pure water
Experimental: To assess the effects of lysine administration on stress-induced gastric ulcers, 7-week Wistar rats (male; Nippon Charles-River) were used. For 7 days, normal diet (CRF-1; Oriental Yeast) was fed ad libitum to the rats, for preliminary feeding. For the stress experiment, rats were divided into the following three groups for feeding for another 3 days under starvation conditions: I) a control group (N=8) fed with pure water; 2) a group (N=8) given with an aqueous lysine solution (40 mg/mL); and 3) a group (N=4) given with an aqueous mixture solution of lysine glutamate salt (40 mg/mL) and arginine (40 mg/mL). The aqueous solutions were given to the individual groups in such a manner that dosing of 5 mL of each solution was enforced with an oral probe, once daily at 9:00 in the morning.
During the term, water was fed ad libitum. On day 4, the rats were placed in a stress gage (Natsume Seisakusho; KN-468) as in Example 3, to immerse the rats in water (temperature of 22 to 25° C.) so as to soak their breast for 5 hours to induce stress-induced gastric ulcer.

[6] = system: rats; test: Water-immersion restraint model of stress-induced gastric ulcer, diets (Example 3); format: in vivo, rat; conditions: 3-week feeding, 18 h starvation, water immersion 6 hours at 22 to 25 C
Experimental: Rats were fed with the low lysine diet and the lysine-added diet supplemented for lysine deficiency (see Table 1) for 3 weeks. After starvation for 18 hours, the rats were placed in a stress gage (Natsume Seisakusho; KN-468) to immerse the rats in water (temperature of 22 to 25° C.) so as to soak their breast for 6 hours. Thereafter, a stomach was resected, to calculate the area with gastric bleeding, to examine the degree of gastric bleeding with the NHI image software. […] A correlation between gastric bleeding and the incidence of gastric ulcer is observed in this model. Therefore, it can be concluded that adding lysine to diet can prevent stress-induced gastric ulcer occurring on the low lysine diet.

Row | Structure (SMILES) | Total feed intake [1] [g] | Daily feeding ratio (%) [1] [%] | Daily increment (%) [1] [%] | Feed efficiency (%) [1] [%] | Survival rate (%) [1] [%] | Mean body weight at start [1] | Weekly feed intake (g) for 0-1 week [1] [g] | Weekly feed intake (g) for 1-2 week [1] [g] | Weekly feed intake (g) for 2-3 week [1] [g] | Weekly feed intake (g) for 3-4 week [1] [g] | Mean body weight on 1 week [1] | Mean body weight on 2 week [1] | Mean body weight on 3 week [1] | Mean body weight on 4 week (final) [1] | feed intake compared with the remaining experimental lots (involving higher body weight increment) [1] | other results
1 | N=C(N)NCCC[C@H](N)C(=O)O [Arginine, L-Arginine, reference compound] | 3072 | 4.09 | 3.36 | 82.0 | 100 | 35.5 | 18.7 | 36.7 | 54.5 | 76.8 | 45.7 | 61.5 | 77.6 | 98.5 | could not be obtained | 
2 | NCCCC[C@H](N)C(=O)O [Lysine, L-Lysine] | 3452 | 4.29 | 3.68 | 85.8 | 100 | 34.8 | 18.4 | 38.3 | 59.9 | 86.3 | 46.4 | 63.7 | 84.2 | 108.9 | larger | body weight increment compared with the control ([1]; at the termination of the test): 17%; time duration for searching action ([2]; 5 mL orally once daily for 3 days, water immersion 4 hours on day 4, compared with the glutamine group): significantly prolonged; effect on total feed intake and body weight change under stress [3]: preventive effect; growth inhibition [4]: no growth inhibition is observed; areas of gastric bleeding [5]: significant reduction; degree in areas of gastric bleeding (ratio of the area of gastric bleeding to the total gastric area) [6]: can prevent
3 | NC(=O)CC[C@H](N)C(=O)O [glutamine, L-Glutamine, reference compound] |  |  |  |  |  |  |  |  |  |  |  |  |  |  |  | time duration for searching action, glutamine group vs physiological saline group ([2]; evaluation of the effect of glutamine): No significant difference
